Measured values: PMC8500670, “A selective WDR5 degrader inhibits acute myeloid leukemia in patient-derived mouse models” (Science translational medicine, 2021)
Like-named read-outs stand apart in the source and are kept apart here.

Key:
Assay in all cases: biochemical
Parameters in all cases: protein methyltransferase selectivity panel, enzyme activity relative to DMSO controls, single concentration in duplicate
NSD2 = biological target: T1, NSD2 (Homo sapiens, UniProt O96028); details: Substrate:=Nucleosomes
T1 sequence (O96028 1-1365): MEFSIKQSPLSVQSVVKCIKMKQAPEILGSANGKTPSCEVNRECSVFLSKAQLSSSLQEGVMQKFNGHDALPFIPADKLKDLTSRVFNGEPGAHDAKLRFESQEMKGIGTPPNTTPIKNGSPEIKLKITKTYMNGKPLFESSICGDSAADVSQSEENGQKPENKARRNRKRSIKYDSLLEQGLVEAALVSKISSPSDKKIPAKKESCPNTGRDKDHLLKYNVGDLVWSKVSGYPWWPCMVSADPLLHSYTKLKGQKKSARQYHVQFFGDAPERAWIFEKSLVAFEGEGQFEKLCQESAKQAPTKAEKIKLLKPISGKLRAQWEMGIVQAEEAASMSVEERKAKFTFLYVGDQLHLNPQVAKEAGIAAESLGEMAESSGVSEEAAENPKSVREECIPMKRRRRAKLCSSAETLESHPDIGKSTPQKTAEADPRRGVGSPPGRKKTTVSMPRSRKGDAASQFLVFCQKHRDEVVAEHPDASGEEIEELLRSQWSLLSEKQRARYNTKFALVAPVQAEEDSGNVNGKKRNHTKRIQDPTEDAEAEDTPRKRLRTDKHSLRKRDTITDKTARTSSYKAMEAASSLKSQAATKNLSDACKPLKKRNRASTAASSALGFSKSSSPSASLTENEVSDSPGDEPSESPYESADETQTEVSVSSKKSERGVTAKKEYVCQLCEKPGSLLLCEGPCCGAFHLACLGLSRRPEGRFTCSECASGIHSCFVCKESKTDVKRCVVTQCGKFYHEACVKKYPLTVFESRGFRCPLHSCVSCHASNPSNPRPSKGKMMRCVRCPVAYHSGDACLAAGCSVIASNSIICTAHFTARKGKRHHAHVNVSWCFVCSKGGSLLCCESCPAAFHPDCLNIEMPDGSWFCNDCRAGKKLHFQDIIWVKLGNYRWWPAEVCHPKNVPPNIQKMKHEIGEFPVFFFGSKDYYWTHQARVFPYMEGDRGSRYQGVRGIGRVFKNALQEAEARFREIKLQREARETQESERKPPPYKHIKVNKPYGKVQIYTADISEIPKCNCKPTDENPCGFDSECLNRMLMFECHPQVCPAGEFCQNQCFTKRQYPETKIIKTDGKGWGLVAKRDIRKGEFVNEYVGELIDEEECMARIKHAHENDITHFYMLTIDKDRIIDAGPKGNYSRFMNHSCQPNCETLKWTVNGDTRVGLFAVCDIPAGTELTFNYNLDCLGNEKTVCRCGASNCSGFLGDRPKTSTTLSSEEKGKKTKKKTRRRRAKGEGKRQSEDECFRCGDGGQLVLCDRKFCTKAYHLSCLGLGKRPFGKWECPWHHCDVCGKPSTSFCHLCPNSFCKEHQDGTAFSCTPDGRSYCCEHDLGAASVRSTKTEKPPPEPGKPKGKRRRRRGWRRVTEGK
Method: (§1) We next assessed selectivity of MS67 against 22 protein methyltransferases (table S2) and a broad panel of common drug targets including 45 kinases (table S3) and 44 G protein–coupled receptors (GPCR), ion channels, and transporters (table S4). […] We subsequently determined that MS67 had moderate binding affinity (Ki = 1.0 ± 0.8 μM) to Sigma 2 receptor (fig. S10).

PRMT8 = PRMT8 (Homo sapiens, UniProt Q9NR22); details: Substrate:=Histone H4
PRMT8, sequence (Q9NR22 whole entry): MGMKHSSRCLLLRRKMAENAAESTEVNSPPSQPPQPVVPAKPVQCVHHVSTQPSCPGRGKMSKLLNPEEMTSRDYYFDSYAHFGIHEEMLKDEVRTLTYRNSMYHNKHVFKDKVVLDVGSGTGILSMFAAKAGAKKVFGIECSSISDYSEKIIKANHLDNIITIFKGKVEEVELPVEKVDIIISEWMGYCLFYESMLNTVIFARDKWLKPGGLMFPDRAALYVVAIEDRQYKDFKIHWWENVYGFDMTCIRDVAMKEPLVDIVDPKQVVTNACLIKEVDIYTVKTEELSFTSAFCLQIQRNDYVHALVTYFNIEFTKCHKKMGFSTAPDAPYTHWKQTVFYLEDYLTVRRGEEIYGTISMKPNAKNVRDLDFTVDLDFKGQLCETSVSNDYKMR
Method: as §1

SET7/9 = biological target: T2, SET7/9 (Homo sapiens, UniProt Q8WTS6); details: Substrate:=Core Histone
T2 construct: gene SETD7
T2 sequence (Q8WTS6 1-366): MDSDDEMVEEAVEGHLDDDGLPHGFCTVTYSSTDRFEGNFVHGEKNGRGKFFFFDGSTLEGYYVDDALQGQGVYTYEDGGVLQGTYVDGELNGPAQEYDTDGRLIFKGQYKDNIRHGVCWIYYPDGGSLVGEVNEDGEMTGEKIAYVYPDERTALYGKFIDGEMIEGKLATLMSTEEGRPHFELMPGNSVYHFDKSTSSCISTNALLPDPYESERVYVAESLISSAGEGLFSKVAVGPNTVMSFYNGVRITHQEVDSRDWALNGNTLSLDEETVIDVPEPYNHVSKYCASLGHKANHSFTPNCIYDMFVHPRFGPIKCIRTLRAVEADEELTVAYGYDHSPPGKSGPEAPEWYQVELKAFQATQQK
Method: as §1

[1] = read-out: Enzyme % Activity (relative to DMSO controls) / MS67 / 10 / Data 1:
[2] = read-out: Enzyme % Activity (relative to DMSO controls) / MS67 / 10 / Data 2:

## Cc1ncsc1-c1ccc([C@H](C)NC(=O)[C@@H]2C[C@@H](O)CN2C(=O)[C@@H](NC(=O)CNC(=O)c2ccc(F)c(-c3ccc(N4C[C@@H](C)N(C)[C@@H](C)C4)c(NC(=O)c4c[nH]c(=O)cc4C(F)(F)F)c3)c2)C(C)(C)C)cc1 [MS67]
NSD2; [1]
  remaining activity at 10 µM: 93%
NSD2; [2]
  remaining activity at 10 µM: 107%
PRMT8; [1]
  remaining activity at 10 µM: 102%
PRMT8; [2]
  remaining activity at 10 µM: 98.1%
SET7/9; [1]
  remaining activity at 10 µM: 99.7%
SET7/9; [2]
  remaining activity at 10 µM: 92%
